Assay results as given in patent US5576318A, “Benzimidazolone derivatives” (Boehringer Ingelheim Italia S.p.A., priority 1991, dated 1996).

Columns and labels:
[1] = target: T1, 5-HT1A receptor (Rattus norvegicus, UniProt P19327); experiment: 5-HT1A receptor binding ([3H]-8-OH-DPAT displacement, rat hippocampi); design: species or system rat (male Sprague Dawley); settings: 30° C. for 15 min, read-out: AFFINITY FOR 5-HT1A RECEPTORS Ki
T1 construct: The Hippocampi of these animals were homogenized in 10 volumes of ice cold TRIS buffer; from tissue; host or cells: hippocampus of male Sprague Dawley rats, homogenate
T1 sequence (P19327 1-422): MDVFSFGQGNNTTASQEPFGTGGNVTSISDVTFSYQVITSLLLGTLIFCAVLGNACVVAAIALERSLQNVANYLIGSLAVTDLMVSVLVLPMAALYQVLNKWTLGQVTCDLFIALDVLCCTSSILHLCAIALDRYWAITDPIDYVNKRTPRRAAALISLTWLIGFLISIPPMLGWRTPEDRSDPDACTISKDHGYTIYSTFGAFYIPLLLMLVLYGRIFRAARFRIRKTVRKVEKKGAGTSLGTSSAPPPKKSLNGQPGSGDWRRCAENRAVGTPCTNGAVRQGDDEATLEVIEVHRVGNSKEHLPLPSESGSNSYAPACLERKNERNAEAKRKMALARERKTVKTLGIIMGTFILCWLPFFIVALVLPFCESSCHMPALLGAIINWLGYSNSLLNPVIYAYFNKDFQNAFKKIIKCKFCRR
Method: Rats (male Sprague Dawley, 200-250 g) were used. The Hippocampi of these animals were homogenized in 10 volumes of ice cold TRIS buffer (pH 7.4). The homogenate was diluted 1:400 (w:v) in the same buffer to have a final protein concentration of about 200 μg/mL, filtered and incubated at 37° C. for 10 min, before use.
Displacement experiments were performed by incubating the homogenate (980 μL) in the presence of [^3 H]-80H-DPAT (1.0-1,5 nM) (10 μL) and of different concentrations of the test compounds dissolved in the test buffer (10 μL), at 30° C. for 15 min (final volume: 1 mL).
Non specific binding was determined in the presence of 100 μM 5-HT (10 μL). The separation of [^3 H]-8-OH-DPAT, free from that bound to the receptor, was carried out by the filtration technique (GF/B filters, Whatman). The radioactivity present was counted by liquid scintillation spectrometry.
(§1) The affinity values (Ki) for the compounds were obtained by a non linear least squares regression analysis on the basis of a one binding site model. The values were corrected on the basis of the radioligand occupancy on the receptors according to the equation: Ki=IC50 /(1+[C]/KD),where [C] and KD represent the concentration and the dissociation constant, respectively, of the radioligand used ([^3 H]-8-OH-DPAT).

[2] = target: T2, 5-HT2 receptor (Rattus norvegicus, UniProt P14842); experiment: 5-HT2 receptor binding ([3H]-Ketanserine displacement, rat cerebral cortices); design: species or system rat (male Sprague Dawley); settings: 37° C. for 10 min, read-out: AFFINITY FOR 5-HT2 RECEPTORS Ki
T2 construct: Cerebral cortices were homogenized in 10 volumes of ice cold 0.32M sucrose; from tissue; host or cells: cerebral cortex of male Sprague Dawley rats, membranes
Method: Receptor binding studies on 5-HT1A and 5-HT2 receptors were carried out to determine the affinity of the test compounds.
Rats (male Sprague Dawley, 200-250 g) were used. Cerebral cortices were homogenized in 10 volumes of ice cold 0.32M sucrose. After the centrifugation of the homogenate (1,000×g for 10 min) the supernatant was then recentrifuged at 48,000×g for 15 min. The resulting pellet was resuspended in 10 volumes of 50 mM TRIS buffer (pH 7.4), incubated at 37° C. for 10 min and recentrifuged at 48,000×g for 15 min. The residue was then resuspended in 10 volumes of 50 mM TRIS buffer (pH 7.4).
The tissue was diluted 1:100 (w:v) in 50 mM TRIS buffer (pH 7.4) to have a final protein concentration of about 200 μg/mL.
Displacement experiments were performed by incubating the homogenate (980 μL) in the presence of [^3 H]-Ketanserine (0.5-1.0 nM) (10 μL) and of different concentrations of the test compounds dissolved in the assay buffer (10 μL), at 37° C. for 10 min (final volume: 1 mL).
Non specific binding was determined in the presence of 100 μM Methysergide (10 μL). The separation of [^3 H]-Ketanserine free from that bound to the receptor was carried by the filtration technique (GF/B filters, Whatman). The radioactivity present was counted by liquid scintillation spectrometry.
as §1, with “by” for “by a”, “model. These” for “model. The”, “Ki=IC50 /(1+[C]/KD), where” for “Ki=IC50 /(1+[C]/KD),where”, “([^3 H]-Ketanserine).” for “([^3 H]-8-OH-DPAT).”
The results of some of the compounds of the present invention on the affinity to the 5-HT1A and 5-HT2 receptors are reported in Table 1.

[3] = test system: 5-HT1A receptors; experiment: Behavioral syndrome: induction of 5-HT1A related syndrome; format: in vivo, rat; design: key: sum of symptom scores per rat within 50 min; settings: within 50 min, mean ± s.e. from 4 rats
Method: The test consists of administering the compound and registering the presence of the above mentioned symptoms within 50 min giving them a score. The results are expressed as the sum of said scores for each rat (Tab. 2).
Values represent mean± s.e. from 4 rats

[4] = test system: 5-HT2 receptors; experiment: Antagonism of quipazine-induced head twitches; format: in vivo; settings: ip; head twitches scored within 20 minutes in quipazine-treated animals

T2 sequence (P14842 whole entry): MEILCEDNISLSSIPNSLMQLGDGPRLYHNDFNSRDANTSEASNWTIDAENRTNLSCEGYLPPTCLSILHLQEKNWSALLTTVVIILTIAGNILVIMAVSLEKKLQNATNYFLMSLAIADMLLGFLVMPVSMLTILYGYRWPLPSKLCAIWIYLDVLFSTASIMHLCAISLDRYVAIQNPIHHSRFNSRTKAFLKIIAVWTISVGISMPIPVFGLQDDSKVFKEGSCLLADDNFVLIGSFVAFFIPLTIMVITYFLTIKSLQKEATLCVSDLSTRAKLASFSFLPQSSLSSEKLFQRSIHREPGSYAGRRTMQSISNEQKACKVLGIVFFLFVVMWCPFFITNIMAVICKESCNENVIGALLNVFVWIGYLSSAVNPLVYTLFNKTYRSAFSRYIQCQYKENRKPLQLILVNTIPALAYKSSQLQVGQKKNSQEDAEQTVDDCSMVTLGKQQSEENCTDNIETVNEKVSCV

SMILES | Ki [1] | Ki [2] | INDUCTION OF 5-HT1A RELATED SYNDROME Total score ([3]; dose 8 mg/kg/ip) | DOSE OF COMPOUND (ID50) WHICH ANTAGONIZES THE SYNDROME INDUCED BY QUIPAZINE [4] | INDUCTION OF 5-HT1A RELATED SYNDROME Total score ([3]; dose 16 mg/kg/ip) | INDUCTION OF 5-HT1A RELATED SYNDROME Total score ([3]; dose 32 mg/kg/ip)
COc1ccccc1N1CCN(CCCCn2c(=O)[nH]c3ccccc32)CC1 [Compound 1, 1-[4-(4-(2-methoxy-phenyl)piperazin-1-yl)butyl]-2,3-dihydro-1H-benzimidazol-2-one] | 13 nM | 36 nM | 7.3 ± 0.9 | 720 μg/kg/ip |  | 
O=c1[nH]c2ccccc2n1CCN1CCN(c2cccc(C(F)(F)F)c2)CC1 [Compound 3, 1-[2-(4-(3-trifluoromethyl-phenyl)piperazin-1-yl)ethyl]-2,3-dihydro-1H-benzimidazol-2-one] | 50 nM | 133 nM |  | 498 μg/kg/ip | 5.3 ± 1.2 | 
O=c1[nH]c2ccccc2n1CCCCN1CCN(c2cccc(Cl)c2)CC1 [Compound 4, 1-[4-(4-(3-chlorophenyl)piperazin-1-yl)butyl]-2,3-dihydro-1H-benzimidazol-2-one] | 74 nM | 1.4 nM | 0.8 ± 0.5 | 250 μg/kg/ip | 3.3 ± 1.0 | 
O=c1[nH]c2ccccc2n1CCCCN1CCN(c2cccc(C(F)(F)F)c2)CC1 [Compound 8, 1-[4-(4-(3-trifluoromethyl-phenyl)piperazin-1-yl)butyl]-2,3-dihydro-1H -benzimidazol-2-one] | 53 nM | 9.5 nM | 3.0 ± 2.7 | 385 μg/kg/ip |  | 
Cn1c(=O)n(CCCCN2CCN(c3cccc(C(F)(F)F)c3)CC2)c2ccccc21 [Compound 9, 1-[4-(4-(3-trifluoromethyl-phenyl)piperazin-1-yl)butyl]-3-methyl-2,3-dihydro-1H-benzimidazol-2-one] | 23 nM | 14 nM | 2.0 ± 0.6 | 1720 μg/kg/ip |  | 
COc1ccccc1N1CCN(CCCn2c(=O)[nH]c3ccccc32)CC1 [Compound 10, 1-[3-(4-(2-methoxyphenyl)piperazin-1-yl)propyl]-2,3-dihydro-1H-benzimidazol-2-one] | 5 nM | 30 nM | 3.0 ± 0.4 | 3300 μg/kg/ip |  | 
CCn1c(=O)n(CCCCCCN2CCN(c3cccc(C(F)(F)F)c3)CC2)c2ccccc21 [Compound 13, 1-[6-(4-(3-trifluoromethyl-phenyl)piperazin-1-yl)hexyl]-3-ethyl-2,3-dihydro-1H-benzimidazol-2-one] | 15 nM | 15 nM |  | 8200 μg/kg/ip |  | 3.8 ± 1.3
CC(C)n1c(=O)n(CCCCN2CCN(c3cccc(C(F)(F)F)c3)CC2)c2ccccc21 [Compound 15, 1-[4-(4-(3-trifluoromethyl-phenyl)piperazin-1-yl)butyl]-3-isopropyl-2,3-dihydro-1H-benzimidazol-2-one] | 80 nM | 20 nM |  |  |  | 
Cn1c(=O)n(CCCCN2CCN(c3cccc(Cl)c3)CC2)c2ccccc21 [Compound 17, 1-[4-(4-(3-chlorophenyl)piperazin-1-yl)butyl]-3-methyl-2,3-dihydro-1H-benzimidazol-2-one] | 30 nM | 8 nM | 1.5 ± 0.7 | 178 μg/kg/ip |  | 10.3 ± 2.9
O=c1[nH]c2ccccc2n1CCCN1CCN(c2cccc(C(F)(F)F)c2)CC1 [Compound 18, 1-[3-(4-(3-trifluoromethyl-phenyl)piperazin-1-yl)propyl]-2,3-dihydro-1H-benzimidazol-2-one] | 25 nM | 4 nM |  | 170 μg/kg/ip | 3.8 ± 2.2 | 12.0 ± 3.2
COc1ccc2[nH]c(=O)n(CCCCN3CCN(c4ccccc4OC)CC3)c2c1 [Compound 24, 6-methoxy-1-[4-(4-(2-methoxyphenyl)piperazin-1-yl)butyl]-2,3-dihydro-1H-benzimidazol-2-one] | 12 nM | 65 nM | 4.3 ± 1.1 | 102 μg/kg/ip |  | 
COc1ccc2[nH]c(=O)n(CCCCN3CCN(c4cccc(C(F)(F)F)c4)CC3)c2c1 [Compound 25, 6-methoxy-1-[4-(4-(3-trifluoromethyl-phenyl)piperazin-1-yl)butyl]-2,3-dihydro-1H-benzimidazol-2-one] | 100 nM | 25 nM | 2.0 ± 1.2 | 1420 μg/kg/ip |  | 
O=c1[nH]c2ccccc2n1CCCCN1CCN(c2cccc3ccccc23)CC1 [Compound 30, 1-[4-(4-(1-naphtyl)piperazin-1-yl)butyl]-2,3-dihydro-1H-benzimidazol-2-one] | 10 nM | 7 nM |  |  |  | 
